Columns and labels:
Assay type in all cases: in vivo
[1] = Iron clearing efficiency in non-iron overloaded, bile duct cannulated rat model; details: for Efficiency (%) (iron clearing efficiency): 300 μmol/kg, 24 hour iron excretion, 2:1 ligand-iron complex
Method: Iron Clearing Efficiency of Iron Chelators in a Non-Iron Overloaded, Bile Duct Cannulated Rat Model
Studies were performed in the non-iron overloaded, bile duct cannulated rodent model with the compounds shown below.
Briefly, male Sprague-Dawley rats averaging 450 g were housed in Nalgene plastic metabolic cages during the experimental period and given free access to water. The animals were anesthetized using sodium pentobarbital (55 mg/kg) administered intraperitoneally. The bile duct was cannulated using 22-gauge polyethylene tubing. The cannula was inserted into the duct about 1 cm from the duodenum and tied snugly in place. After threading through the shoulder, the cannula was passed from the rat to the swivel inside a metal torque-transmitting tether, which was attached to a rodent jacket around the animal's chest. The cannula was directed from the rat to a Gilson microfraction collector (Middleton, Wis.) by a fluid swivel mounted above the metabolic cage. Three hour bile samples were continuously collected for a minimum of 24 hours up to 48 hours. However, the efficiency calculations are based on the 24 hour iron excretion. The efficiency of each chelator was calculated on the basis of a 2:1 ligand-iron complex. The efficiencies in the rodent model were calculated by subtracting the iron excretion of control animals from the iron excretion of treated animals. This number was then divided by the theoretical output; the result is expressed as a percentage (Bergeron, R. J., et al., J. Med Chem. 42:95-108 (1999) the entire contents of which are incorporated herein by reference). The urine sample was taken at 24 hours and handled as previously described in Bergeron, R. J., et al., J. Med. Chem. 34:2072-2078 (1991), the entire contents of which are incorporated herein by reference.

[2] = Iron clearing efficiency in iron-overloaded Cebus apella monkey model; details: primates, given either p.o. or s.c.
Method: Iron Chelators in a Cebus apella Monkey Model Studies were performed in the iron-overloaded monkey model with the compounds shown below: The protocol used can be found in Bergeron, R. J. et al., “Methoxylation of Desazadesferrithiocin Analogues: Enhanced Iron Clearing Efficiency,” J. Med. Chem. 46:1470-1477 (2003), the contents of which are incorporated herein by reference. Briefly, the monkeys were iron overloaded with iron dextran administered intravenously to result in an iron loading of about 500 mg per kg of body weight. At least 20 half-lives, 60 days, elapsed before the animals were used in experiments evaluating iron chelators. Fecal and urine samples were collected at 24 hour intervals beginning 4 days prior to the administration of an iron chelator and continued for 5 days after the chelator was administered. Iron concentrations in stool and urine were determined by flame atomic absorption spectroscometry. Iron chelator efficiency was calculated by dividing the net iron clearance [total iron excretion (stool plus urine) minus background] by the theoretical iron clearance and multiplying by 100. The theoretical clearance of the iron chelator was generated on the basis of a 2:1 ligand/iron complex.

[3] = Tissue and plasma concentrations upon subcutaneous administration to rats; details: rat
Method: Tissue Distribution of a Polyether-Substituted (S)-4′-Hydroxydesazadesferrithiocin Analogue [(S)-4′-(HO)-DADFT-PE] Upon Subcutaneous Administration to Rats
A measurement was made assessing (S)-4′-(HO)-DADFT-PE and (S)-4′-(HO)-DADFT tissue and plasma concentrations upon subcutaneous administration at times from 2-8 h post dosing. The rats were given this compound subcutaneously at 300 μmol/kg. The tissue and plasma level were obtained as described in Bergeron et al. J Med Chem. 48:821-831 (2005), the entire contents of which are incorporated herein by reference.

- Tissue distribution (where most is found) ([3]; sc): found in the liver, kidney and pancreas
- Brain concentration of administered compound ([3]; sc 300 μmol/kg, 2 h): 0.5 ± 0.9 nmol/g wet wt
- Brain concentration of administered compound ([3]; sc 300 μmol/kg, 4 h): 0.0 ± 0.0 nmol/g wet wt
- Brain concentration of administered compound ([3]; sc 300 μmol/kg, 6 h): 0.0 ± 0.0 nmol/g wet wt
- Brain concentration of administered compound ([3]; sc 300 μmol/kg, 8 h): 0.0 ± 0.0 nmol/g wet wt
- Heart concentration of administered compound ([3]; sc 300 μmol/kg, 2 h): 9.2 ± 2.6 nmol/g wet wt
- Heart concentration of administered compound ([3]; sc 300 μmol/kg, 4 h): 5.3 ± 1.4 nmol/g wet wt
- Heart concentration of administered compound ([3]; sc 300 μmol/kg, 6 h): 0.0 ± 0.0 nmol/g wet wt
- Heart concentration of administered compound ([3]; sc 300 μmol/kg, 8 h): 2.0 ± 1.7 nmol/g wet wt
- Kidney concentration of administered compound ([3]; sc 300 μmol/kg, kidney, 2 h): 41.1 ± 3.0 nmol/g wet wt
- Kidney concentration of administered compound ([3]; sc 300 μmol/kg, kidney, 4 h): 33.7 ± 13.5 nmol/g wet wt
- Kidney concentration of administered compound ([3]; sc 300 μmol/kg, kidney, 6 h): 13.7 ± 2.1 nmol/g wet wt
- Kidney concentration of administered compound ([3]; sc 300 μmol/kg, kidney, 8 h): 7.4 ± 2.1 nmol/g wet wt
- Liver concentration of administered compound ([3]; sc 300 μmol/kg, 2 h): 131.6 ± 32.2 nmol/g wet wt
- Liver concentration of administered compound ([3]; sc 300 μmol/kg, 4 h): 66.9 ± 12.4 nmol/g wet wt
- Liver concentration of administered compound ([3]; sc 300 μmol/kg, 6 h): 34.3 ± 1.5 nmol/g wet wt
- Liver concentration of administered compound ([3]; sc 300 μmol/kg, 8 h): 25.4 ± 4.6 nmol/g wet wt
- Pancreas concentration of administered compound ([3]; sc 300 μmol/kg, 2 h): 29.6 ± 24.8 nmol/g wet wt
- Pancreas concentration of administered compound ([3]; sc 300 μmol/kg, 4 h): 12.6 ± 5.2 nmol/g wet wt
- Pancreas concentration of administered compound ([3]; sc 300 μmol/kg, 6 h): 4.6 ± 1.6 nmol/g wet wt
- Pancreas concentration of administered compound ([3]; sc 300 μmol/kg, 8 h): 2.7 ± 2.6 nmol/g wet wt
- concentration at 2 h ([3]; sc 300 μmol/kg, plasma, 2 h, read-out: Plasma concentration of administered compound): 16.2 ± 4.2 µM
- concentration at 4 h ([3]; sc 300 μmol/kg, plasma, 4 h, read-out: Plasma concentration of administered compound): 5.3 ± 2.6 µM
- concentration at 6 h ([3]; sc 300 μmol/kg, plasma, 6 h, read-out: Plasma concentration of administered compound): 1 ± 1 µM
- concentration at 8 h ([3]; sc 300 μmol/kg, plasma, 8 h, read-out: Plasma concentration of administered compound): 0 nM
- Metabolism back to (S)-4-(HO)DADFT ([3]; sc, any tissue): very little metabolism
- Kidney level compared with (S)-4-(HO)-DADFT ([3]; sc, kidney, any time point): much less of the PE in the kidney
SMILES: COCCOCCOCCOc1ccc(C2=N[C@@](C)(C(=O)O)CS2)c(O)c1 [(S)-4′-(HO)-DADFT-PE, (S)-4,5-Dihydro-2-[2-hydroxy-4-[2-[2-(2-methoxyethoxy)ethoxy]ethoxy]phenyl]-4-methyl-4-thiazolecarboxylic Acid]
- Efficiency (%) (iron clearing efficiency) ([1]; p.o.): 6.6 ± 1.9%
- Efficiency (%) (iron clearing efficiency) ([1]; s.c.): 8.7 ± 2.8%
- Iron clearing efficiency compared with parent drug (S)-4-(HO)-DADFT ([1]; same micromole per kilogram dose): work better than the parent drug
- Iron clearing efficiency compared with (S)-4′-(HO)-DADFT [2]: at least as efficient as (S)-4′-(HO)-DADFT

From patent US9994535B2, “Desferrithiocin polyether analogues” (University of Florida Research Foundation, Inc., priority 2005, dated 2018)
